We go through 3 molecules from patent publication US20030224467A1, “AIB1 as a prognostic marker and predictor of resistance to endocrine therapy” (priority 2002, published 2003).

One assay relates to primary breast cancer. Briefly: Five-year disease-free survival of node-positive breast cancer patients on tamoxifen adjuvant therapy, by AIB1 and HER-2 status. The assay is classed as in vivo, human. The procedure:
Frozen tumor specimens from 316 patients, all of whom had positive axillary lymph nodes at the time of initial surgery, were selected for study. Such patients have higher recurrence rates after primary treatment, resulting in more events for statistical power. […] The median follow-up for patients still living is 95 months. Proteins from 30 mg of tissue were extracted in 300 μl 5% SDS at 90° C. for 5 minutes. Protein concentration was determined using the BCA method (Pierce, Rockford, Ill.); typical yields were 2-5 μg/μl. Samples were stored at −70° C. until use.
Assays were performed and results quantified by an investigator blinded to clinical information. 20 μg of extracted protein in sample buffer (0.05 M tris, pH 6.8, containing 2% SDS, 2.5% β-mercaptoethanol, 10% glycerol, and 0.1% bromphenol blue as tracking dye) were placed in boiling water for 2 minutes, cooled to room temperature, and centrifuged for 1 minute. An MCF-7 reference standard (5 μg protein per lane) was included on each gel as a normalization control. Proteins were electrophoresed on 8% Tricine-Glycine polyacrylamide gels (Invitrogen, Carlsbad, Calif.) and then transferred onto nitrocellulose. Blots were rinsed 5 minutes with TBS (TRIS-buffered saline: 100 mM TRIS, pH 7.5, and 0.9% NaCl) containing 0.1% Tween-20 (TBST). After blocking with 5% nonfat dry milk in TBST, the blots were incubated overnight at 4° C. in the primary antibody (1:1000 rabbit anti-RAC3 antiserum). This antibody was raised in rabbits against a MBP fusion protein containing amino acid residues 582-842 of human RAC3 (AIB1).
The blots were washed 3 times in TBST, followed by incubation for 1 hour in 5% nonfat dry milk in TBST and 1:5000 horseradish peroxidase labeled anti-rabbit Ig (Amersham, Piscataway, N.J.). The blots were washed 5 times in TBST, after which the labeled protein was visualized on a FluorChem digital imaging system (Alpha Innotech, San Leandro, Calif.) using an enhanced chemiluminescence detection system. Band intensities were measured densitometrically using the AlphaEaseFC software (Alpha Innotech, San Leandro, Calif.). AIB1 levels in tumors were normalized to the AIB1 concentration in the MCF-7 positive control lysate (5 μg) from the same immunoblot.
ER and progesterone receptors (PR) were measured by ligand binding assays as described by Harvey et al., 1999. S-phase fraction was calculated by DNA flow cytometry and classified as low, intermediate, or high (Wenger et al, 1998). Immunohistochemistry was used to semiquantitatively measure p53 and bcl 2 expression, and HER-2 expression was determined by western blot analyses as described by Elledge et al., 1997, and Tandon et al., 1989.
Associations between AIB1, steroid receptors, HER-2 and other molecular markers, and clinical variables were assessed using Spearman rank correlation. The disease-free survival (DFS) was calculated from the date of diagnosis. First recurrence (local or distant) was scored as an event, and patients without recurrence were censored at the time of last follow-up or death, meaning that an event of interest (e.g., recurrence or death) has not yet occurred. For graphical presentation, follow-up was truncated at 120 months. Overall survival was calculated from the date of diagnosis, with death from any cause being scored as an event. Patients who were alive at the last follow-up were censored at the last follow-up date. Survival curves were derived from Kaplan-Meier estimates, which are well known in the art, and the curves were compared by log-rank tests. Initially, separate analyses were performed for treated and untreated patients. The influence of AIB1 adjusted for other prognostic factors was assessed in multivariate analysis by Cox proportional hazards models.

In a further assay the test system is MCF-7/HER-218 tumors. Briefly: Athymic nude mouse model, MCF-7/HER-218 tumor growth. The assay is classed as in vivo, mice. The note with it: continued estrogen, or estrogen withdrawal plus tamoxifen, compared to estrogen withdrawal alone.
In the next assay the test system is parental MCF-7 tumors. Briefly: Parental MCF-7 tumor growth. The note with it: wild-type MCF-7, tamoxifen. Format: in vivo, mice.
The subject of another assay is MCF-7 cells. Briefly: S-phase fraction of cells. The assay is classed as cell-based, human. To be noted: agent alone.
The next assay relates to MCF-7/HER-218 cells. Nature of the assay: S-phase fraction of cells. Format: cell-based, human. To be noted: agent alone.
Assay [1] has as its system AIB1 in MCF-7/HER-218 cells. Nature of the assay: Western blot mobility shift of AIB1. Format: cell-based, human. The procedure:
(§1) In PPase treatment group, cell extracts were incubated with PPase prior to analysis as previously described. Antibody against AIB1 was used.
Background: Immunoblotting shows a protein as a band on a membrane.

Another assay concerns ER in MCF-7 cells. Nature of the assay: ERE luciferase reporter, ER dependent transcription. The assay is classed as cell-based, human. (Reporter assays use an easily measured gene product as a stand-in for the process of interest.)
Assay [2] relates to ER in MCF-7/HER-218 cells. The assay is described as above. Format: cell-based, human.
Assay [3] deals with pS2 promoter in MCF-7 cells. Briefly: Chromatin immunoprecipitation on the pS2 promoter. The note with it: 20 minute incubation.
Protocol: (§2) Wild type MCF7 and HER-2-18 cells were grown to 90% confluence in phenol red-free IMEM supplemented with 10% CDS FBS for 7 days, the cells were starved completely with phenol red-free IMEM (without serum) for overnight. […] Cells were pelleted and lysis in 1 ML SDS lysis buffer and incubated on ice for 10 min. Lysate was sonicated by three times for 10 sec. at maximum setting followed by centrifugation for 10 min at 4 C. 200 ul of supernatant was, subjected to each immunoprecipitation with specific antibody, diluted with ChIP dilution buffer 10 fold and pre-cleared with 80 ul of SS-DNA/Protein A/G agarose plus 20 ul of normal mouse or rabbit IgG (Santa Cruz) depending on primary antibody used afterward for 4 hrs at 4 C. The beads were collected and saved as normal IgG control. The pre-cleared supernatant was immunoprecipitated with antibodies against ER, or AIB1, or NcoR, or Act-H3, respectively at 4° C. for overnight, followed by SS-DNA/Protein A/G at 4 C. for 1 hr. Pellet agarose by gentle centrifugation (1000 rpm, 1 min, 4° C.). The pellets were intensively washed sequentially as follows in 1 ml volume: low salt wash buffer X 1 time, high salt wash buffer X 1 time, LiCl salt wash buffer X 1 time, TE X 2 times. […]
For assay [4], the system named is pS2 promoter in MCF-7/HER-218 cells. Briefly: Chromatin immunoprecipitation on the pS2 promoter. To be noted: 20 minute incubation.
Protocol: as §2
Assay [5] concerns ER, EGF-R, HER-2/neu, MAPK and AKT in parental MCF-7 cells. Briefly: Phosphorylation analysis by western immunoblotting. To be noted: for Phosphorylation of EGF-R and HER-2/neu / Phosphorylation of ER on serine 118 / Phosphorylation of MAPK and AKT: short-term (20 minutes).
Protocol: (§3) Treatments of cells with E2, 4HOT, EGF or HRG were conducted after cells were starved in phenol red-free, serum-free IMEM for 24 hr.
(§4) Treated cells were then immediately harvested. Cells were first rinsed twice with cold PBS, and lysed in 1×cell lysis buffer (Cell Signaling Technology) supplemented with 10% Glycerol, 1 mM Pherryl Methylsulfonyl Fluoride (PMSF), 1×Complete Protease inhibitor mixture (Roche, Indianapolis, Ind.), 1 μM Okadaic acid, 10 μg/mL Microsystin as instruction from Cell Signaling Technology. Protein concentration was measured by Bio-Rad Protein Assay kit (Bio-Rad, Hercules, Calif.) according to manufacturer's instruction. 20 μg of protein extracts from individual treatments were electrophoresized on SDS-PAGE gel (Invitrogen), and electroblotted to nitrocellulose membrane (Millipore, Bedford, Mass.). Membranes were blocked with blocking buffer (5% w/v nonfat dry milk in 1×TBS with 0.1% Tween-20, TBST) for 1 hr and then incubated with primary antibody in 5% BSA TBST (for all phospho antibodies with gentle agitation overnight at 4° C., otherwise in blocking buffer for 2 hrs at room temperature). After washing and incubating with secondary horseradish peroxidase conjugated antibodies against mouse or rabbit IgG (Amershan, Arlington Heoghts, Ill. Immunoreactive proteins were detected by the ECL (Amershan). Quantitation was performed by using NIH Imagine Software.
Assay [6] has as its system ER, EGF-R, HER-2/neu, MAPK and AKT in MCF-7/HER-218 cells. Nature of the assay: Phosphorylation analysis by western immunoblotting. The note with it: for Phosphorylation of EGF-R, HER-2/neu and MAPK / Phosphorylation of ER on serine 118: short-term (20 minutes).
Protocol: as §3, §4
Assay [7] concerns HER-2/neu and MAPK in BT474 cells. Briefly: Phosphorylation analysis by western immunoblotting. To be noted: 20 minute treatment.
Protocol: as §4
The subject of assay [8] is phosphorylated MAPK, AIB1. Nature of the assay: Immunoblot of MCF-7/HER-218 tumors from treated mice.
Protocol: Treated cells were then immediately harvested. Cells were first rinsed twice with cold PBS, and lysed in 1×cell lysis buffer (Cell Signaling Technology) supplemented with 10% Glycerol, 1 mM Pherryl Methylsulfonyl Fluoride (PMSF), 1×Complete Protease inhibitor mixture (Roche, Indianapolis, Ind.), 1 μM Okadaic acid, 10 μg/mL Microsystin as instruction from Cell Signaling Technology. […] 20 μg of protein extracts from individual treatments were electrophoresized on SDS-PAGE gel (Invitrogen), and electroblotted to nitrocellulose membrane (Millipore, Bedford, Mass.). Membranes were blocked with blocking buffer (5% w/v nonfat dry milk in 1×TBS with 0.1% Tween-20, TBST) for 1 hr and then incubated with primary antibody in 5% BSA TBST (for all phospho antibodies with gentle agitation overnight at 4° C., otherwise in blocking buffer for 2 hrs at room temperature). After washing and incubating with secondary horseradish peroxidase conjugated antibodies against mouse or rabbit IgG (Amershan, Arlington Heoghts, Ill. Immunoreactive proteins were detected by the ECL (Amershan). Quantitation was performed by using NIH Imagine Software.
Assay [9] deals with estrogen responsive genes in wild-type MCF-7 cells. Nature of the assay: Endogenous estrogen responsive gene induction (immunoblot). To be noted: 12 hr induction.
Description: (§5) The cellharvest, cell extraction preparation and immunobloting were as above.
Assay [10] has as its system estrogen responsive genes in MCF-7/HER-218 cells. The assay is described as above. The note with it: for Protein expression of endogenous estrogen responsive genes: 12 hr induction.
Description: as §5
Another assay relates to AIB1 in MCF-7 cells. Nature of the assay: Western blot mobility shift of AIB1. Format: cell-based, human. The note with it: reversed by phosphatase treatment. The procedure:
as §1

Entries after “also recorded” stand apart in the source; their conditions may differ.

In the case of `CC/C(=C(\c1ccccc1)c1ccc(OCCN(C)C)cc1)c1ccccc1` [tamoxifen], the “5 yr DFS” value worked out at 42% with primary breast cancer (High HER-2 (grade 2-4), High AIB1 (top quartile)); 42% in the assay on primary breast cancer (High HER-2 (grade 2-4), High AIB1 (top quartile), listed as Tamoxifen); 77% in the assay with primary breast cancer (High HER-2 (grade 2-4), Low AIB1 (lower 3 quartiles)); 77% with primary breast cancer (High HER-2 (grade 2-4), Low AIB1 (lower 3 quartiles), listed as Tamoxifen); 82% with primary breast cancer (Low HER-2 (grade 0-1), High AIB1 (top quartile)); 64% in the assay with primary breast cancer (Low HER-2 (grade 0-1), Low AIB1 (lower 3 quartiles)). Also, in the assay with primary breast cancer (other three groups combined (not high AIB1 and high HER-2)), the “5-year DFS” value was 70%. Also, the figures for the Tumor growth entry in the assay with MCF-7/HER-218 tumors and with parental MCF-7 tumors were “increased tumor growth; also recorded: stimulated” and “inhibited”, respectively. For the same molecule, the “Percent of cells in S-phase” value with MCF-7 cells was “no agonist effect”. Also, in the assay on MCF-7/HER-218 cells, the “Fraction of cells in S-phase” value is reported as “stimulated the fraction of cells in S-phase”. Further, the “AIB1 phosphorylation (mobility shift of AIB1 band)” value in assay [1] is “phosphorylation of AIB1 was observed”. Moreover, the ERE luciferase activity result in the assay with ER in MCF-7 cells (agent alone) was “no agonist activity”. Also, in [2] (agent alone), the “ERE luciferase activity above control” value is given as “inability”. In addition, the “Occupancy of the pS2 promoter” value in assay [3] is “induced occupancy of this promoter by ER but not by AIB1”; in assay [4], “induced occupancy of the pS2 promoter by ER and by AIB1”. Besides, the MAPK phosphorylation result was “no effect” in assay [5] (48 hour treatment) and “striking effects” in assay [6] (48 hour treatment). The “Phosphorylation of ER” value in [5] (48 hour treatment) and in assay [6] (48 hour treatment) was “still evident” each time. The “Phosphorylation of EGF-R and HER-2/neu” value in assay [5] is “could not detect phosphorylation”. Also, the “Phosphorylation of ER on serine 118” value is listed as “phosphorylate” in [5] and “phosphorylated” in assay [6]. In addition, the “Phosphorylation of MAPK and AKT” value in [5] was “could not detect phosphorylation”. The “Phosphorylation of EGF-R, HER-2/neu and MAPK” value in [6] was “phosphorylation was detected”. For the same molecule, the “Phosphorylated HER-2/neu and MAPK” value in assay [7] is “striking increase”. Further, the “Total and phosphorylated AIB1 in tumors” value in assay [8] (MCF-7/HER-218 tumors of treated mice) is listed as “induced; also recorded: both higher”. Moreover, in assay [8] (estrogen, or estrogen withdrawal plus tamoxifen, versus estrogen withdrawal alone), the “Tumor level of phosphorylated (active) MAPK” value was “activate MAPK and high”. Besides, the “Protein expression of endogenous estrogen responsive genes” value in [9] is on record as “no agonist activity”; in assay [10], “behaved as an estrogen agonist on all of the genes”.
Take “EGF: epidermal growth factor purchased from Invitrogen (NSDSECPLSHDGYCLHDGVCMYIEALDKYACNCVVGYIGERCQYRDLKWWELR; Epidermal growth factor; UniProt P01133 971-1023, looked up)”: in assay [5], the “Phosphorylation of EGF-R and HER-2/neu” value is “unable to detect phosphorylation”; the “Phosphorylation of ER on serine 118” value is listed as “phosphorylate”; the “Phosphorylation of MAPK and AKT” value was “did phosphorylate MAPK and AKT”. Further, in assay [6], the “Phosphorylation of EGF-R, HER-2/neu and MAPK” value was “phosphorylation was detected”; the “Phosphorylation of ER on serine 118” value is listed as “phosphorylated”.
As to heregulin, the “Percent of cells in S-phase” value in the assay on MCF-7 cells is listed as “markedly increased the S-phase fraction”. The “Fraction of cells in S-phase” value with MCF-7/HER-218 cells is recorded as “stimulated the fraction of cells in S-phase”. Further, in the assay with AIB1 in MCF-7 cells, the “AIB1 phosphorylation (mobility shift of AIB1 band)” value was “upshifted the AIB1 band”. Also, the “AIB1 phosphorylation (mobility shift of AIB1 band)” value in assay [1] is “phosphorylation of AIB1 was observed”. Besides, in the assay with ER in MCF-7 cells (heregulin added to estrogen), the ERE luciferase activity result is “two fold”. In addition, in the assay on ER in MCF-7 cells (heregulin added to tamoxifen), the ERE luciferase activity result is recorded as “increase luciferase activity a small amount”. Besides, the “ERE luciferase activity in response to both estrogen and tamoxifen” value in assay [2] (heregulin added) is recorded as “remarkably enhanced luciferase activity”. Further, the “Estrogen agonist properties of tamoxifen (luciferase)” value in [2] (heregulin added to tamoxifen) is “levels above estrogen alone”. In [5], the “Phosphorylation of EGF-R and HER-2/neu” value was “strongly phosphorylated”; the “Phosphorylation of ER on serine 118” value is given as “phosphorylate”; the “Phosphorylation of MAPK and AKT” value is “strongly phosphorylated”. Further, in assay [6], the “Phosphorylation of EGF-R, HER-2/neu and MAPK” value was “phosphorylation was detected”; the “Phosphorylation of ER on serine 118” value is “phosphorylated”. Besides, the “Protein expression of endogenous estrogen responsive genes” value in assay [9] is on record as “induced the expression of all of the genes except for progesterone receptor”. In assay [10], the “Protein expression of endogenous estrogen responsive genes” value is reported as “dramatic effects on several of these genes”. In assay [10] (heregulin), the “Level of IRS1” value was “large increase” and the “Protein expression of progesterone receptor” value is given as “increased”.
